A short description of experiment [1]: DRUGMATRIX: Sodium/nucleoside co-transporter radioligand binding (ligand: nitrobenzylthioinosine). The experiment is classed as cell membranes, Cavia porcellus, Dunkin-Hartley, Cerebral cortex, Membrane. To be noted: Not Active = under 50% inhibition at 10 µM.
Experiment [2] in a line: DRUGMATRIX: ATPase, Na+/K+ enzyme inhibition (substrate: ATP). The experiment is classed as tissue-based, Sus scrofa, Heart. To be noted: Not Active = under 50% inhibition at 10 µM.
Experiment [3] can be described thus: DRUGMATRIX: beta-Lactamase enzyme inhibition (substrate: Nitrocefin). Set-up: species or system Bacillus cereus. To be noted: Not Active = under 50% inhibition at 10 µM.
For experiment [4], the target named is T1, Cholecystokinin receptor type A (Homo sapiens, UniProt P32238). Note: in other assays of this panel Not Active means under 50% inhibition at 10 µM.
T1 sequence (P32238 whole entry): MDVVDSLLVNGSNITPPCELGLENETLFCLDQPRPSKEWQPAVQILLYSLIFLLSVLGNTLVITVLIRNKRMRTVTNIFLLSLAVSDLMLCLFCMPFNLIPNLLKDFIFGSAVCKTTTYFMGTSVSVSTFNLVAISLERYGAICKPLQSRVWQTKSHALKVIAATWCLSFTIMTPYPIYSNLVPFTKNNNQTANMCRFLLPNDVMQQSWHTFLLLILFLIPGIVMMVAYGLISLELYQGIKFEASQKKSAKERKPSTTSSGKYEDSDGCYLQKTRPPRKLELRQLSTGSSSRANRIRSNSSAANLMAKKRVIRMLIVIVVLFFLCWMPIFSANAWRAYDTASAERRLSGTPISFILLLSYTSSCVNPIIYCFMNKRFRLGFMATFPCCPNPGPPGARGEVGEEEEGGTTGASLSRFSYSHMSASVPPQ
In kind it is cell membranes, Membrane. To be noted: 1321-n1.

Experiment [5] has as its target Sodium-dependent dopamine transporter (Homo sapiens, UniProt Q01959). The experiment in a line: DRUGMATRIX: Dopamine Transporter radioligand binding (ligand: [125I] RTI-55). In kind it is cell membranes, CHO-K1, Membrane. To be noted: cho-k1; Not Active = under 50% inhibition at 10 µM.
For another experiment, the target named is Melanocortin receptor 5 (Homo sapiens, UniProt P33032). In kind it is cell membranes, HEK293, Membrane. To be noted: hek293. Note: in other assays of this panel Not Active means under 50% inhibition at 10 µM.

Broadly, the IC50 is the concentration needed to halve the response being measured.

Sodium-dependent dopamine transporter, sequence (Q01959 whole entry): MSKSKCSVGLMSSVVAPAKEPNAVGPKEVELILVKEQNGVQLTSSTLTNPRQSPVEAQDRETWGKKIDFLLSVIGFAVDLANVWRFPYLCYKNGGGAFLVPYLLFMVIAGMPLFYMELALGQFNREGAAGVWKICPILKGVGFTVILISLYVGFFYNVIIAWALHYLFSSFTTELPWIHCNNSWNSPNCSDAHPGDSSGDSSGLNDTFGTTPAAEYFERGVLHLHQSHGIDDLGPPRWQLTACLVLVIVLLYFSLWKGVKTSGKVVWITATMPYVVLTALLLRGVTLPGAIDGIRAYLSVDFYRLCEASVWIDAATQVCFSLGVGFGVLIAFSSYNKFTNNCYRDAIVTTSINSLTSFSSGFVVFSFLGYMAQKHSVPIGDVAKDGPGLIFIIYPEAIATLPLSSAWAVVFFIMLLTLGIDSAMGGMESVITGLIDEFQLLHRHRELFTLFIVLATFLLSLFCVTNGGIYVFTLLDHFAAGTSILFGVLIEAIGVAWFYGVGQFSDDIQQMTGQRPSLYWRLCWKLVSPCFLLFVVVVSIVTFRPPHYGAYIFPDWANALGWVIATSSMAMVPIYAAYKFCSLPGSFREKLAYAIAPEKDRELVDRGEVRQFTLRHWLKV
Melanocortin receptor 5, sequence (P33032 whole entry): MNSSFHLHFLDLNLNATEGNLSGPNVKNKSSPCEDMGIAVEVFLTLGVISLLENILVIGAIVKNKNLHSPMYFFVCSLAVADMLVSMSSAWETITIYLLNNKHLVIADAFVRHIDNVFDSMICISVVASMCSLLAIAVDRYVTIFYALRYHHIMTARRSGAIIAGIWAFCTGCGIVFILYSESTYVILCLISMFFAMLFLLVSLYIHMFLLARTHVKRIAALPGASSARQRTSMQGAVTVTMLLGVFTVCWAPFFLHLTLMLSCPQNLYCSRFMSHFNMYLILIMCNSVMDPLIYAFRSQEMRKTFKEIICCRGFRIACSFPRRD

With `CCN1CCCC1CNC(=O)c1cc(S(N)(=O)=O)ccc1OC` (configuration not stated) [SULPIRIDE], the IC50 result (in experiment [1]; in experiment [2]; in experiment [3]; in experiment [4]; in experiment [5]; at Melanocortin receptor 5) was “Not Active” in each case. The Ki entry in experiment [1], in experiment [2] and in experiment [3] was “Not Active” throughout.
`O=C(OC[C@H]1O[C@@H](OC(=O)c2cc(O)c(O)c(OC(=O)c3cc(O)c(O)c(O)c3)c2)[C@H](OC(=O)c2cc(O)c(O)c(OC(=O)c3cc(O)c(O)c(O)c3)c2)[C@@H](OC(=O)c2cc(O)c(O)c(OC(=O)c3cc(O)c(O)c(O)c3)c2)[C@@H]1OC(=O)c1cc(O)c(O)c(OC(=O)c2cc(O)c(O)c(O)c2)c1)c1cc(O)c(O)c(OC(=O)c2cc(O)c(O)c(O)c2)c1` [TANNIC ACID]: the IC50 result is “Not Active” in experiment [1]; 1340 nM in experiment [2] (read-out: IC50); “Not Active” in experiment [3]; “Not Active” in experiment [4]; “Not Active” in experiment [5]; “Not Active” at Melanocortin receptor 5. Also, the Ki entry in experiment [1] and in experiment [3] was “Not Active” each time.
As to `C#C[C@]1(O)CC[C@H]2[C@@H]3[C@H](C)CC4=C(CCC(=O)C4)[C@H]3CC[C@@]21C` [TIBOLONE], the IC50 result (in experiment [1]; in experiment [2]; in experiment [3]; in experiment [4]; in experiment [5]; at Melanocortin receptor 5) was “Not Active” in each case. Further, the Ki entry in experiment [1], in experiment [2] and in experiment [3] was “Not Active” throughout.
Consider `Cc1cccc(C)c1NC(=O)C(C)N` (configuration not stated) [TOCAINIDE], for which the concentration for half-maximal inhibition (IC50) entry (in experiment [1]; in experiment [2]; in experiment [3]; in experiment [4]; in experiment [5]; on Melanocortin receptor 5) was “Not Active” each time. In addition, the Ki entry in experiment [1], in experiment [2] and in experiment [3] was “Not Active” each time.
For `Cc1ccc(S(=O)(=O)NC(=O)NN2CCCCCC2)cc1` [TOLAZAMIDE], the IC50 result (in experiment [1]; in experiment [2]; in experiment [3]; in experiment [4]; in experiment [5]; at Melanocortin receptor 5) was “Not Active” in each case. The Ki entry in experiment [1], in experiment [2] and in experiment [3] was “Not Active” throughout.
As for `CC[C@@]1(O)C(=O)OCc2c1cc1n(c2=O)Cc2cc3c(CN(C)C)c(O)ccc3nc2-1` [TOPOTECAN], the IC50 result (in experiment [1]; in experiment [2]; in experiment [3]; in experiment [4]; in experiment [5]; at Melanocortin receptor 5) was “Not Active” each time. In addition, the Ki result in experiment [1], in experiment [2] and in experiment [3] was “Not Active” each time.
As to `CC1=C(/C=C/C(C)=C/C=C/C(C)=C/C(=O)O)C(C)(C)CCC1` [TRETINOIN], the IC50 entry (in experiment [1]; in experiment [2]; in experiment [3]; in experiment [4]; in experiment [5]; at Melanocortin receptor 5) was “Not Active” throughout. Also, the Ki entry in experiment [1], in experiment [2] and in experiment [3] was “Not Active” throughout.
With `CC(Cl)(Cl)Cl` [TRICHLOROETHANE], the IC50 result (in experiment [1]; in experiment [2]; in experiment [3]; in experiment [4]; in experiment [5]; against Melanocortin receptor 5) was “Not Active” throughout. The Ki result in experiment [1], in experiment [2] and in experiment [3] was “Not Active” each time.
In the case of `CN1C(=O)OC(C)(C)C1=O` [TRIMETHADIONE], the IC50 entry (in experiment [1]; in experiment [2]; in experiment [3]; in experiment [4]; in experiment [5]; against Melanocortin receptor 5) was “Not Active” throughout. In addition, the Ki result in experiment [1], in experiment [2] and in experiment [3] was “Not Active” each time.
As for LEAD(IV) ACETATE, the IC50 entry (in experiment [1]; in experiment [2]; in experiment [3]; in experiment [4]; in experiment [5]; at Melanocortin receptor 5) was “Not Active” throughout. Also, the Ki result (in experiment [1]; in experiment [2]; in experiment [3]; in experiment [4]; in experiment [5]; on Melanocortin receptor 5) was “Not Active” throughout.

These data come from ChEMBL document CHEMBL1909046, “DrugMatrix in vitro pharmacology data”.
